This note sets out measurements from US20050060764A1, “Mouse model for bone metabolism” (priority 2003, published 2005).

The test system of data set [1] is RANKL mRNA. The data set can be described thus: RANKL mRNA % inhibition after PTH infusion in mice treated with RANKL antisense oligonucleotides for two weeks (Table 10). Format: in vivo, mouse. The settings on record: then 24 h PTH infusion, normalized to PTH alone. Here is the method:
(§1) Female Swiss-Webster (5-8 wks old) mice fed a low-calcium diet were dosed subcutaneously for two weeks with either the oligonucleotides ISIS 180819 (SEQ ID NO: 185) or 180814 (SEQ ID NO: 180) at concentrations of 5 mg/kg, 15 mg/kg, 30 mg/kg, or 40 mg/kg. A control group of mice were treated with calcitonin (400 ng) plus PTH (1 ug/100 g/6 hr), PTH alone (1 ug/100 g/6 hr) or saline. Treatment with oligonucleotides was followed with infusion of PTH by subcutaneously implanted mini-pumps at a dose of 1 ug/100 g/6 hr. After 24 hours of PTH infusion (total PTH delivery of 4 ug/100 g), the mice were sacrificed and the serum calcium concentration was measured with the Sigma Diagnostics Calcium Kit (Sigma-Aldrich). The data, summarized in Table 10 are averages from eight mice. Percent mRNA inhibition is normalized to PTH alone treatment.

Data set [2] concerns RANKL mRNA. The data set can be described thus: Antisense inhibition of RANKL mRNA in proximal tibia and calvaria of mice after PTH infusion: dose response and delivery method (Table 9). Format: in vivo, mouse. Here is the method: In accordance with the present invention, the levels of RANKL in the proximal tibia and calvaria in mice were measured following antisense oligonucleotide treatment and PTH infusion.
Female Swiss-Webster mice (5-8 wks old) fed a low-calcium diet were treated with ISIS 180819 (SEQ ID NO: 185) by subcutaneous injection at a dose of either 30 mg/kg or 50 mg/kg or intraperitoneal injection at a dose of either 15 mg/kg, 30 mg/kg or 50 mg/kg. After 2 weeks of daily treatment, the mice were infused with PTH at a dose of 1 ug/100 g/6 hr. After 24 hours of PTH infusion (total PTH delivery of 4 ug/100 g), the mice were sacrificed. The proximal tibia and calvaria were isolated and the level of RANKL mRNA expression was determined in each using two different primer-probe sets to confirm the results. The first primer-probe set was #1207, consisting of […] (forward primer, SEQ ID NO: 349), […] (reverse primer, SEQ ID NO: 350) and […] (probe, SEQ ID NO: 351). The second primer-probe set was #1015, consisting of […] (forward primer, SEQ ID NO: 352), […] (reverse primer, SEQ ID NO: 353) and […] (probe, SEQ ID NO: 354). The results are expressed as percent inhibition relative to PTH treatment alone and represent the average of eight mice per group.

Data set [3] deals with RANKL mRNA. The data set can be described thus: Antisense inhibition of RANKL mRNA expression followed by PTH treatment in primary mouse osteoblast cells: dose response (Table 8). It counts as cell-based. Conditions: for % RANKL mRNA inhibition: 10 nM PTH last 2 h, relative to PTH alone. Here is the method: Primary mouse osteoblasts were prepared from calvaria of neonatal mice purchased from Charles River Laboratories. […] Cells were not passaged. Cells were seeded onto 6-well plates (Falcon-Primaria #353846) at a density of 50,000 cells/well for use in antisense oligonucleotide transfection.
In a further embodiment of this invention, the effect of RANKL antisense oligonucleotides and PTH treatment on the expression of RANKL was determined in primary osteoblast cells isolated from mice skull caps.
ISIS 143624 ([…], SEQ ID NO: 348) was used as a control oligonucleotide. […] All cytidine residues are 5-methylcytidines.
Primary osteoblastic cells were transfected for 24 hours with either Isis 180819 (SEQ ID NO: 185) or the control oligo ISIS 143624 (SEQ ID NO: 348) at a dose of […], 125 nM, 250 nM, or 500 nM by the methods described herein but using the transfection reagent FuGENE 6 (Roche Applied Science, Indianapolis, Ind.). During the last 2 hours of oligonucleotide transfection, the cells were treated with 10 nM PTH. The RNA was then harvested and the expression levels of […] were measured by the methods described herein. The results are expressed as percent inhibition relative to PTH treatment alone and represent the average from three experiments.

The next data set deals with mouse RANKL mRNA. The data set can be described thus: Antisense inhibition of mouse RANKL mRNA levels in C2C12 cells, quantitative real-time PCR (Table 2). It counts as cell-based. More on the design: concentration or dose not given beside the values. Conditions: averages from three experiments. In short, it runs like this:
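C2C12 cells seeded at ~10,000 cells/cm^2, treated with antisense oligonucleotides (all C as 5-methylcytidine) in triplicate and harvested 16-24 h later. Mouse RANKL mRNA quantified by real-time RT-PCR with a FAM/TAMRA probe, with mouse GAPDH (JOE/TAMRA probe) as reference.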

Data set [4] can be described thus: Serum calcium concentration 24 hours after PTH infusion in mice treated with RANKL antisense oligonucleotides (Table 10). Format: in vivo, mouse. The settings on record: for serum calcium: then 24 h PTH infusion. Here is the method: In accordance with the present invention, the effect of antisense oligonucleotide inhibition on PTH-induced serum calcium concentration increase was measured in mice. The serum calcium concentration in mice was measured as a function of antisense oligonucleotide dose. Calcitonin, a known bone antiresorptive agent, was used as a control for antiresorptive activity.
as §1

Data set [5] relates to RANKL mRNA. The data set can be described thus: Antisense inhibition of RANKL mRNA expression followed by PTH treatment in primary mouse osteoblast cells: dose response (Table 8). Format: cell-based. The settings on record: 63 nM oligonucleotide 24 h, 10 nM PTH last 2 h, relative to PTH alone.
The mark [6] stands for this setting: 5 mg/kg subcutaneously two weeks.
[7] abbreviates: 15 mg/kg subcutaneously two weeks.
The mark [8] stands for this setting: 30 mg/kg subcutaneously two weeks.
Setting [9] is: 40 mg/kg subcutaneously two weeks.

Entries after “also recorded” stand apart in the source; their conditions may differ. Strand notation (5' to 3'): a small letter for the sugar, then the base; units joined by * are phosphorothioate-linked, units joined directly phosphodiester-linked; [ ] holds rarer units or linkages, { } end groups; capitals alone tell only the bases. e = 2'-O-(2-methoxyethyl) (MOE); [5mC] = 5-methylcytosine; d = 2'-deoxy (DNA)

Regarding “tgcaggtcccagcgcaatgt (antisense eT*eG*e[5mC]*eA*eG*dG*dT*d[5mC]*d[5mC]*d[5mC]*dA*dG*d[5mC]*dG*d[5mC]*eA*eA*eT*eG*eT) [ISIS 180819, 2′-MOE gapmer targeted to mouse RANKL]”, the “RANKL mRNA, % inhib” value with RANKL mRNA [1] (setting [6]), in the data set with RANKL mRNA [1] (setting [7]) and in the data set with RANKL mRNA [1] (setting [8]) was 0 % inhib each time. For the same substance, the “% Inhibition of RANKL” value in the data set on RANKL mRNA [2] (intraperitoneal injection 15 mg/kg daily 2 weeks, proximal tibia, primer-probe set 1015) amounted to 2%; with RANKL mRNA [2] (intraperitoneal injection 15 mg/kg daily 2 weeks, proximal tibia, primer-probe set 1207), 0%; in the data set on RANKL mRNA [2] (intraperitoneal injection 30 mg/kg daily 2 weeks, calvaria, primer-probe set 1015) it was 39%; in the data set on RANKL mRNA [2] (intraperitoneal injection 30 mg/kg daily 2 weeks, calvaria, primer-probe set 1207), 24%; with RANKL mRNA [2] (intraperitoneal injection 30 mg/kg daily 2 weeks, proximal tibia, primer-probe set 1015) it was 0%; with RANKL mRNA [2] (intraperitoneal injection 30 mg/kg daily 2 weeks, proximal tibia, primer-probe set 1207), 0%. In addition, the “% Inhibition of RANKL” value in the data set with RANKL mRNA [2] (intraperitoneal injection 50 mg/kg daily 2 weeks, calvaria, primer-probe set 1015) is 51%; with RANKL mRNA [2] (intraperitoneal injection 50 mg/kg daily 2 weeks, calvaria, primer-probe set 1207) it was 54%; with RANKL mRNA [2] (intraperitoneal injection 50 mg/kg daily 2 weeks, proximal tibia, primer-probe set 1015), 21%; in the data set on RANKL mRNA [2] (intraperitoneal injection 50 mg/kg daily 2 weeks, proximal tibia, primer-probe set 1207), 13%; with RANKL mRNA [2] (subcutaneous injection 30 mg/kg daily 2 weeks, calvaria, primer-probe set 1015) it was 38%; in the data set with RANKL mRNA [2] (subcutaneous injection 30 mg/kg daily 2 weeks, calvaria, primer-probe set 1207), 38%. In addition, the “% Inhibition of RANKL” value in the data set with RANKL mRNA [2] (subcutaneous injection 30 mg/kg daily 2 weeks, proximal tibia, primer-probe set 1015) is 5%; with RANKL mRNA [2] (subcutaneous injection 30 mg/kg daily 2 weeks, proximal tibia, primer-probe set 1207) it was 10%; with RANKL mRNA [2] (subcutaneous injection 50 mg/kg daily 2 weeks, calvaria, primer-probe set 1015), 60%; in the data set with RANKL mRNA [2] (subcutaneous injection 50 mg/kg daily 2 weeks, calvaria, primer-probe set 1207), 52%; with RANKL mRNA [2] (subcutaneous injection 50 mg/kg daily 2 weeks, proximal tibia, primer-probe set 1015) it was 32%; in the data set on RANKL mRNA [2] (subcutaneous injection 50 mg/kg daily 2 weeks, proximal tibia, primer-probe set 1207), 36%. In addition, in the data set on RANKL mRNA [2] (mice, 2 weeks daily s.c. 30 or 50 mg/kg or i.p. 15, 30 or 50 mg/kg, 24 hours PTH infusion), the “inhibition of PTH-induced increase in RANKL mRNA expression in the proximal tibia and calvaria” value is “capable of inhibiting the PTH-induced increase in RANKL mRNA expression; also recorded: greater inhibition observed in the calvaria”. The “inhibition of PTH-induced increase in RANKL mRNA expression” value in the data set with RANKL mRNA [3] (primary mouse osteoblast cells, 63 nM, 125 nM, 250 nM, or 500 nM, 24 hours, FuGENE 6, 10 nM PTH last 2 hours) is on record as “able to inhibit the PTH-induced increase in RANKL mRNA expression”. For the same substance, the “% INHIB (inhibition of mouse RANKL mRNA levels)” value with mouse RANKL mRNA is reported as “at least 40%”. Further, the “serum calcium” value is 21 mg/dL in data set [4] (setting [6]), 17 mg/dL in data set [4] (setting [7]) and 19 mg/dL in data set [4] (setting [8]). Also, the “PTH-induced increase in serum calcium concentration” value in data set [4] (mice, s.c. two weeks 5, 15, 30 or 40 mg/kg, 24 hours PTH infusion) is “lessen the PTH-induced increase in serum calcium concentration”.
For “143624 (antisense eT*eG*e[5mC]*eT*e[5mC]*dA*dG*d[5mC]*dG*dA*dG*dT*dG*dT*dG*e[5mC]*e[5mC]*eA*eG*e[5mC]) [compound 143624]”, the “% RANKL mRNA inhibition” value in the data set with RANKL mRNA [5] turned out to be 4%; in the data set on RANKL mRNA [3] (125 nM oligonucleotide 24 h), 3%; in the data set with RANKL mRNA [3] (250 nM oligonucleotide 24 h) it was 0%; in the data set on RANKL mRNA [3] (500 nM oligonucleotide 24 h), 9%.
As to “gtcttacacatgtatagaca (antisense eG*eT*e[5mC]*eT*eT*dA*d[5mC]*dA*d[5mC]*dA*dT*dG*dT*dA*dT*eA*eG*eA*e[5mC]*eA) [ISIS 180814, 2′-MOE gapmer targeted to mouse RANKL]”, the “RANKL mRNA, % inhib” value in the data set with RANKL mRNA [1] (setting [6]) is 0 % inhib; in the data set with RANKL mRNA [1] (setting [7]), 0 % inhib; in the data set on RANKL mRNA [1] (setting [8]), 27 % inhib; with RANKL mRNA [1] (setting [9]), 6 % inhib. Besides, the “% INHIB (inhibition of mouse RANKL mRNA levels)” value in the data set on mouse RANKL mRNA is recorded as “at least 40%”. Further, the “serum calcium” value in data set [4] (setting [6]) amounted to 22 mg/dL; in data set [4] (setting [7]) it was 20 mg/dL; in data set [4] (setting [8]), 18 mg/dL; in data set [4] (setting [9]) it was 19 mg/dL.
